Assay results published in patent US20200316056A1, “Pain Medicine Combination and Uses Thereof” (Mindlab, LLC, priority 2013, published 2020).
Values joined by “and” are separate entries in the source; they are usually repeats but may differ in a detail not shown here. Equal values may be shown once.

System: rats
Test: Ugo Basile Tail Flick method (Example 2)
Format: in vivo
Conditions: for Tail Flick Time (seconds) after administration: individual rats 1-7; for Tail Flick Time (seconds) after administration, Mean: mean of 7 rats; for Tail Flick Time (seconds) after administration, Median: median of 7 rats
Method: The addition of quinidine to a pharmaceutical composition of morphine, and dextromethorphan was tested using Ugo Basile Tail Flick method. This method is often used for in vivo screening of multiple drugs with analgesic activity. The animal was placed and held on the Ugo Basile Tail Flick instrument surface with the tail straight back and across an infrared light source. The heat source and timer are turned on by a foot pedal press, and automatically switch off when the animal flicks its tail off the emitter. Latency time is measured and analyzed as an analgesic effect. Each preparation was tested in 7 rats.

Row | Compound | Tail Flick Time (seconds) after administration (1 h after administration) | Tail Flick Time (seconds) after administration, Mean (1 h after administration) [s] | Tail Flick Time (seconds) after administration, Median (1 h after administration) [s] | Tail Flick Time (seconds) after administration (3 h after administration) | Tail Flick Time (seconds) after administration, Mean (3 h after administration) [s] | Tail Flick Time (seconds) after administration, Median (3 h after administration) [s] | Tail Flick Time (seconds) after administration (5 h after administration) | Tail Flick Time (seconds) after administration, Mean (5 h after administration) [s] | Tail Flick Time (seconds) after administration, Median (5 h after administration) [s] | Tail Flick Time (seconds) after administration (8 h after administration) | Tail Flick Time (seconds) after administration, Mean (8 h after administration) [s] | Tail Flick Time (seconds) after administration, Median (8 h after administration) [s] | Tail Flick Time (seconds) after administration (10 h after administration) | Tail Flick Time (seconds) after administration, Mean (10 h after administration) [s] | Tail Flick Time (seconds) after administration, Median (10 h after administration) [s] | Tail Flick Time (seconds) after administration (14 h after administration) | Tail Flick Time (seconds) after administration, Mean (14 h after administration) [s] | Tail Flick Time (seconds) after administration, Median (14 h after administration) [s] | Tail Flick Time (seconds) after administration (24 h after administration) | Tail Flick Time (seconds) after administration, Mean (24 h after administration) [s] | also measured
1 | CN1CC[C@]23c4c5ccc(O)c4O[C@H]2[C@@H](O)C=C[C@H]3[C@H]1C5 [Morphine] | 5.80 s and 5.10 s and 6.50 s and 30.10 s and 6.80 s and 10.50 s and 3.70 s | 9.79 | 6.50 | 6.30 s and 7.60 s and 2.70 s and 9.50 s and 5.30 s and 5.90 s and 4.80 s | 6.01 | 5.90 | 4.80 seconds and 6.60 seconds and 5.90 seconds and 10.90 seconds and 4.90 seconds and 4.60 seconds (2×) | 6.04 | 4.90 | 6.90 s and 10.50 s and 8.30 s and 8.50 s and 6.70 s and 6.30 s and 3.50 s | 7.24 | 6.90 | 4.70 s and 4.10 s and 4.80 s and 6.50 s and 6.20 s and 4.20 s and 2.90 s | 4.77 | 4.70 | 3.50 seconds and 7.50 seconds and 5.10 seconds (2×) and 7.80 seconds and 2.90 seconds and 4.10 seconds | 5.14 | 5.10 | 4.80 seconds (2×) and 7.60 seconds and 4.30 seconds and 3.40 seconds and 4.90 seconds and 6.10 seconds | 5.13 | Tail Flick Time (seconds) after administration, Median (1 h after administration, listed as morphine): 6.5 s; Tail Flick Time (seconds) after administration, Median (24 h after administration): 4.80 s
2 | COc1ccc2c(c1)[C@]13CCCC[C@@H]1[C@H](C2)N(C)CC3 [Dextromethorphan] | 4.10 s and 3.90 s and 3.30 s and 4.80 s and 5.60 s and 3.70 s and 7.30 s | 4.67 | 4.10 | 3.90 seconds and 4.60 seconds (2×) and 4.50 seconds and 5.40 seconds and 3.30 seconds and 8.70 seconds | 5.00 | 4.60 | 4.60 seconds and 6.40 seconds (2×) and 2.90 seconds and 5.10 seconds and 4.10 seconds and 4.50 seconds | 4.86 | 4.60 | 5.40 s and 5.10 s and 3.70 s and 7.30 s and 4.30 s and 3.80 s and 3.60 s | 4.74 | 4.30 | 3.10 seconds and 5.50 seconds and 4.30 seconds and 4.80 seconds (2×) and 3.90 seconds and 6.60 seconds | 4.71 | 4.80 | 3.90 seconds (2×) and 5.20 seconds and 5.60 seconds and 3.80 seconds and 5.10 seconds and 4.10 seconds | 4.51 | 4.10 | 3.50 seconds (2×) and 4.70 seconds and 4.30 seconds and 5.20 seconds and 3.70 seconds and 3.10 seconds | 4.00 | Tail Flick Time (seconds) after administration, Median (24 h after administration): 3.70 s
